Laboratory results taken from patent US20230218542A1, “MEDICAMENT FOR TREATING HYPERTENSION” (priority 2022, published 2023).

Test system: L-NAME-induced hypertensive rats
Test: Therapeutic effect on L-NAME-induced hypertensive rats (Effect Verification 1), tail artery pressure
Assay type: in vivo, SD rats
Details: for antihypertensive effect (overall finding): SBP and DBP, three weeks of administration; for comparison of SBP with that in the group M: after the end of the administration (third week)
Method: The tail artery pressure, including systolic blood pressure (SBP) and diastolic blood pressure (DBP), was measured in rats in the resting state at the same time using an ALC-NIBP noninvasive blood pressure measuring instrument. One hundred and fifty-two 6-week-old male SD rats were taken and subjected to adaptive feeding for one week at room temperature of 18-26° C. with the relative humidity of 40%-70% and illumination by artificial lighting from 9:00 to 21:00 every day. After one week, blood pressure in all of them was measured, the results were charted using Excel 2010, and the experimental data were analyzed using SPSS 20.0, where P < 0.05 indicated statistical significance and the measurement data were expressed as x̅ ± s. […] According to the commonly used grading criteria for hypertension, SBP 140 mmHg is the critical value of hypertension, and every 20 mmHg is one grade. Every 10 mmHg of DBP is one grade. Therefore, SBP > 140 mmHg is set as mild hypertension and SBP > 160 mmHg is set as moderate hypertension; optionally, DBP increased by more than 10 mmHg is mild hypertension and DBP increased by more than 20 mmHg is moderate hypertension.
Rats with the blood pressure in the normal range measured in the step 1 above and the weight of 200 ± 20 g were randomly taken and grouped into 7 groups: a control group (K) containing 8 rats, a model control group (M), a ligustrazine administration group (TMP, 60 mg/kg), a cannabidiol administration group (CBD, 60 mg/kg), and combined administration groups of TMP and CBD (divided into three groups in different ratios of 2:1 (XA), 1:1 (XB) and 1:2 (XC), TMP = 60 mg/kg, and CBD was 30 mg/kg, 60 mg/kg and 120 mg/kg, respectively). 10 rats were contained in each remaining group. Except for group K, 12 mg/kg L-NAME was administered intragastrically to the rest at 9:00 every day to manufacture a hypertension model, and distilled water was administered in an equal amount to K group. By the fourth week, blood pressure was measured in each group, and after individuals with SBP < 140 mmHg were excluded from the model, each group was administered for three weeks, and drug vehicles were administered in an equal amount to groups K and M. Blood pressure was measured once a week during the administration period. (The animal model was fasted for two hours before the administration, and the medicament was bathed to room temperature. TMP solution at 1 mL/100 g was firstly administered intragastrically to the combined administration groups of TMP and CBD, and after 1 h interval, CBD solution at the corresponding half volume was then administered intragastrically.)
One-way ANOVA analysis (Duncan) was used for pairwise comparisons among groups, and paired-sample t-test was used for before-and-after comparisons within groups. The change trend of SBP of rats in each group is shown in FIG. 2 and the change trend of DBP of rats in each group is shown in FIG. 3, and the abscissa “0” represents the fourth week of molding, i.e., the beginning of the administration period.

[1] = one week of intragastric administration
[2] = three weeks of intragastric administration
[3] = two weeks of intragastric administration

Row | Compound | antihypertensive effect (overall finding) | comparison of SBP with that in the group M | Effect = (SBP in model group - SBP in administration group)/(SBP in model group - SBP in control group) [1] | Effect = (SBP in model group - SBP in administration group)/(SBP in model group - SBP in control group) [2] | Effect = (SBP in model group - SBP in administration group)/(SBP in model group - SBP in control group) [3] | decrease of SBP (after the end of the administration)
1 | ligustrazine phosphate [TMP] | no significant antihypertensive effect | no significant difference | 0.0716 | 0.1722 | 0.0780 | 
2 | C=C(C)[C@@H]1CCC(C)=C[C@H]1c1c(O)cc(CCCCC)cc1O [CBD, cannabidiol] | significant antihypertensive effect | significant difference | 0.3222 | 0.3418 | 0.3628 | more than 10 mmHg
